Data: patent publication US11457628B2, “Substituted pyrimidine compound and preparation method and use thereof” (SHENYANG SINOCHEM AGROCHEMICALS R&D CO., LTD., priority 2017, dated 2022)

System: cucumber anthrax
Test: not given
Type: in vivo
Conditions: dose 400 ppm

Cc1nc(C)c(C)c(N(C)Cc2cnn(-c3ccccc3)c2)n1 [CK3] and Cc1cc(N(C)Cc2cnn(-c3ccccc3)c2)nc(C(C)C)n1 [CK4] are the same in “protective effect for the melon anthrax / cucumber anthrax” value: 0% for the first, 0% for the second.

Compared with Cc1nc(Cl)cc(N(C)Cc2c(C)nn(-c3ccccc3)c2C)n1 [CK5], CCc1ncnc(OCCOc2nn(C)c(-c3ccccc3)c2C)c1Cl [Compound 26-1-1] is higher in “protective effect for the melon anthrax / cucumber anthrax” value: 0% for the first, 100% for the second.

Cc1ncnc(NCCOc2cc(-c3ccc(Cl)cc3Cl)n(C)n2)c1Cl [Compound 10-21] and Cn1nc(OCCNc2ncnc3scc(Cl)c23)cc1-c1ccc(Cl)cc1Cl [Compound 21-21] are the same in “protective effect for the melon anthrax / cucumber anthrax” value: 100% for the first, 100% for the second.

CCc1ncnc(NCCOc2nn(C)c(-c3ccc(Cl)cc3)c2C)c1Cl [Compound 11-1-19] and Cc1c(OCCNc2ncnc(C(F)F)c2Cl)nn(C)c1-c1ccc(Cl)cc1 [Compound 12-1-19] are the same in “protective effect for the melon anthrax / cucumber anthrax” value: 100% for the first, 100% for the second.

Cc1c(OCCNc2ncnc(C(F)F)c2Cl)nn(C)c1-c1ccccc1 [Compound 12-1-1] and Cc1c(OCCNc2ncnc3ccccc23)nn(C)c1-c1ccc(F)cc1 [Compound 19-1-4] are the same in “protective effect for the melon anthrax / cucumber anthrax” value: 100% for the first, 100% for the second.

Cc1c(OCC(C)Nc2ncnc3ccccc23)nn(C)c1-c1ccccc1 (centres unmarked) [Compound 19-4-1] and Cc1c(OCC(C)Nc2ncnc3scc(Cl)c23)nn(C)c1-c1ccccc1 (centres unmarked) [Compound 21-4-1] are the same in “protective effect for the melon anthrax / cucumber anthrax” value: 100% for the first, 100% for the second.

With Cc1c(OCCNc2ncnc3scc(Cl)c23)nn(C)c1-c1ccc(F)cc1 [Compound 21-1-4] the “protective effect for the melon anthrax / cucumber anthrax” value was 100%.

System: wheat powdery mildew
Test: in vivo protective activity, pot determination, wheat powdery mildew
Conditions: 6.25 mg/L

In the case of CCc1ncnc(NCc2cnn(-c3ccccc3)c2C(F)(F)F)c1Cl [CK2], the “Protective Activity (%), wheat powdery mildew” value is reported as 0%.

Same assay, conditions: 25 mg/L

In the case of CCc1ncnc(NCc2cnn(-c3ccccc3)c2C(F)(F)F)c1Cl [CK2], the “Protective Activity (%), wheat powdery mildew” value is reported as 20%.

Same assay, conditions: 100 mg/L

For CCc1ncnc(NCc2cnn(-c3ccccc3)c2C(F)(F)F)c1Cl [CK2], the “Protective Activity (%), wheat powdery mildew” value was 50%.

Same assay, conditions: 400 mg/L

First: CCc1ncnc(NCc2cnn(-c3ccccc3)c2C(F)(F)F)c1Cl [CK2]
Second: Cc1nc(C)c(C)c(N(C)Cc2cnn(-c3ccccc3)c2)n1 [CK3]
The “Protective Activity (%), wheat powdery mildew” value of the first is higher: 100% for the first, 0% for the second.

Cc1cc(N(C)Cc2cnn(-c3ccccc3)c2)nc(C(C)C)n1 [CK4] and Cc1nc(Cl)cc(N(C)Cc2c(C)nn(-c3ccccc3)c2C)n1 [CK5] are the same in “Protective Activity (%), wheat powdery mildew” value: 0% for the first, 0% for the second.

Same assay, conditions: dose 6.25 ppm

In the case of Cc1c(OCCNc2ncnc(C(F)F)c2Cl)nn(C)c1-c1ccc(Cl)cc1 [Compound 12-1-19], the “protective effect for control of wheat powdery mildew” value is reported as “more than 80%”.

System: Tetranychus cinnabarinus
Test: activity against Tetranychus cinnabarinus, airbrush spray method
Conditions: 600 mg/L, after 72 hours

Compared with Cc1nc(C)c(C)c(N(C)Cc2cnn(-c3ccccc3)c2)n1 [CK3], Cc1cc(N(C)Cc2cnn(-c3ccccc3)c2)nc(C(C)C)n1 [CK4] is higher in “Lethality to Tetranychus Cinnabarinus (%)” value: 56% for the first, 59% for the second.

With Cc1nc(Cl)cc(N(C)Cc2c(C)nn(-c3ccccc3)c2C)n1 [CK5] the “Lethality to Tetranychus Cinnabarinus (%)” value was 58%.

System: green peach aphid
Test: activity against the green peach aphid, airbrush spray method
Type: in vivo
Conditions: 100 mg/L, after 48 hours

Compared with CCc1ncnc(NCc2cnn(-c3ccccc3)c2C)c1Cl [CK1], Cc1nc(Cl)cc(N(C)Cc2c(C)nn(-c3ccccc3)c2C)n1 [CK5] is higher in “Lethality to Green Peach Aphid (%)” value: 0% for the first, 22% for the second.

Compared with Cc1nc(C)c(C)c(N(C)Cc2cnn(-c3ccccc3)c2)n1 [CK3], Cc1cc(N(C)Cc2cnn(-c3ccccc3)c2)nc(C(C)C)n1 [CK4] is lower in “Lethality to Green Peach Aphid (%)” value: 30% for the first, 0% for the second.

System: rice blast
Test: microbe, parasite or virus in culture
Type: cell-based
Conditions: Pyricularia oryzae, 24 h, read-out: inhibition activity for rice blast

CCc1ncnc(NCc2cnn(-c3ccccc3)c2C)c1Cl [CK1] and CCc1ncnc(NCc2cnn(-c3ccccc3)c2C(F)(F)F)c1Cl [CK2] are the same in inhibition at 2.8 ppm: 0% for the first, 0% for the second.

Cc1nc(C)c(C)c(N(C)Cc2cnn(-c3ccccc3)c2)n1 [CK3] and Cc1cc(N(C)Cc2cnn(-c3ccccc3)c2)nc(C(C)C)n1 [CK4] are the same in inhibition at 2.8 ppm: 0% for the first, 0% for the second.

First: Cc1nc(Cl)cc(N(C)Cc2c(C)nn(-c3ccccc3)c2C)n1 [CK5]
Second: Cc1c(OCCCNc2ncnc(C(F)F)c2Cl)nn(C)c1-c1ccccc1 [Compound 12-3-1]
The inhibition at 2.8 ppm of the first is lower: 0% for the first, over 80% for the second.

CCc1ncnc(NCc2cnn(-c3ccccc3)c2C)c1Cl [CK1] and CCc1ncnc(NCc2cnn(-c3ccccc3)c2C(F)(F)F)c1Cl [CK2] are the same in inhibition at 8.3 ppm: 0% for the first, 0% for the second.

Cc1nc(C)c(C)c(N(C)Cc2cnn(-c3ccccc3)c2)n1 [CK3] and Cc1cc(N(C)Cc2cnn(-c3ccccc3)c2)nc(C(C)C)n1 [CK4] are the same in inhibition at 8.3 ppm: 0% for the first, 0% for the second.

Going from Cc1nc(Cl)cc(N(C)Cc2c(C)nn(-c3ccccc3)c2C)n1 [CK5] to Cc1c(OCCCNc2ncnc(C(F)F)c2Cl)nn(C)c1-c1ccccc1 [Compound 12-3-1], the inhibition at 8.3 ppm rises from 0% to over 80%.

CCc1ncnc(NCc2cnn(-c3ccccc3)c2C)c1Cl [CK1] and CCc1ncnc(NCc2cnn(-c3ccccc3)c2C(F)(F)F)c1Cl [CK2] are the same in inhibition at 25 ppm: 0% for the first, 0% for the second.

Cc1nc(C)c(C)c(N(C)Cc2cnn(-c3ccccc3)c2)n1 [CK3] and Cc1cc(N(C)Cc2cnn(-c3ccccc3)c2)nc(C(C)C)n1 [CK4] are the same in inhibition at 25 ppm: 0% for the first, 0% for the second.

First: Cc1nc(Cl)cc(N(C)Cc2c(C)nn(-c3ccccc3)c2C)n1 [CK5]
Second: Cc1c(OCCCNc2ncnc(C(F)F)c2Cl)nn(C)c1-c1ccccc1 [Compound 12-3-1]
The inhibition at 25 ppm of the first is lower: 0% for the first, over 80% for the second.

Cn1nc(OCCNc2ncnc3ccccc23)cc1-c1ccc(Br)cc1 [Compound 19-34] was tested, and the inhibition at 25 ppm was over 80%.

System: cucumber downy mildew
Test: in vivo protective activity, pot determination, cucumber downy mildew
Conditions: 25 mg/L

CCc1ncnc(NCc2cnn(-c3ccccc3)c2C)c1Cl [CK1] and CCc1ncnc(NCc2cnn(-c3ccccc3)c2C(F)(F)F)c1Cl [CK2] are the same in “Protective Activity (%), cucumber downy mildew” value: 0% for the first, 0% for the second.

Same assay, conditions: 50 mg/L

CCc1ncnc(NCc2cnn(-c3ccccc3)c2C)c1Cl [CK1] and CCc1ncnc(NCc2cnn(-c3ccccc3)c2C(F)(F)F)c1Cl [CK2] are the same in “Protective Activity (%), cucumber downy mildew” value: 20% for the first, 20% for the second.

Cc1nc(C)c(C)c(N(C)Cc2cnn(-c3ccccc3)c2)n1 [CK3] and Cc1cc(N(C)Cc2cnn(-c3ccccc3)c2)nc(C(C)C)n1 [CK4] are the same in “Protective Activity (%), cucumber downy mildew” value: 0% for the first, 0% for the second.

Same assay, conditions: 100 mg/L

Compared with CCc1ncnc(NCc2cnn(-c3ccccc3)c2C)c1Cl [CK1], CCc1ncnc(NCc2cnn(-c3ccccc3)c2C(F)(F)F)c1Cl [CK2] is lower in “Protective Activity (%), cucumber downy mildew” value: 95% for the first, 75% for the second.

First: Cc1nc(C)c(C)c(N(C)Cc2cnn(-c3ccccc3)c2)n1 [CK3]
Second: Cc1cc(N(C)Cc2cnn(-c3ccccc3)c2)nc(C(C)C)n1 [CK4]
The “Protective Activity (%), cucumber downy mildew” value of the first is lower: 30% for the first, 40% for the second.

Same assay, conditions: 400 mg/L

CCc1ncnc(NCc2cnn(-c3ccccc3)c2C)c1Cl [CK1] and CCc1ncnc(NCc2cnn(-c3ccccc3)c2C(F)(F)F)c1Cl [CK2] are the same in “Protective Activity (%), cucumber downy mildew” value: 100% for the first, 100% for the second.

Cc1nc(C)c(C)c(N(C)Cc2cnn(-c3ccccc3)c2)n1 [CK3] and Cc1cc(N(C)Cc2cnn(-c3ccccc3)c2)nc(C(C)C)n1 [CK4] are the same in “Protective Activity (%), cucumber downy mildew” value: 100% for the first, 100% for the second.

With Cc1nc(Cl)cc(N(C)Cc2c(C)nn(-c3ccccc3)c2C)n1 [CK5] the “Protective Activity (%), cucumber downy mildew” value was 85%.

System: corn rust
Test: in vivo protective activity, pot determination, corn rust
Conditions: 6.25 mg/L

Cc1nc(C)c(C)c(N(C)Cc2cnn(-c3ccccc3)c2)n1 [CK3] and Cc1cc(N(C)Cc2cnn(-c3ccccc3)c2)nc(C(C)C)n1 [CK4] are the same in “Protective Activity (%), corn rust” value: 0% for the first, 0% for the second.

Cc1nc(Cl)cc(N(C)Cc2c(C)nn(-c3ccccc3)c2C)n1 [CK5] was tested, and the “Protective Activity (%), corn rust” value was 20%.

Same assay, conditions: 25 mg/L

Cc1nc(C)c(C)c(N(C)Cc2cnn(-c3ccccc3)c2)n1 [CK3] and Cc1cc(N(C)Cc2cnn(-c3ccccc3)c2)nc(C(C)C)n1 [CK4] are the same in “Protective Activity (%), corn rust” value: 0% for the first, 0% for the second.

In the case of Cc1nc(Cl)cc(N(C)Cc2c(C)nn(-c3ccccc3)c2C)n1 [CK5], the “Protective Activity (%), corn rust” value is reported as 60%.

Same assay, conditions: 100 mg/L

Compared with Cc1nc(C)c(C)c(N(C)Cc2cnn(-c3ccccc3)c2)n1 [CK3], Cc1cc(N(C)Cc2cnn(-c3ccccc3)c2)nc(C(C)C)n1 [CK4] is lower in “Protective Activity (%), corn rust” value: 20% for the first, 0% for the second.

With Cc1nc(Cl)cc(N(C)Cc2c(C)nn(-c3ccccc3)c2C)n1 [CK5] the “Protective Activity (%), corn rust” value was 70%.

Same assay, conditions: 400 mg/L

Going from Cc1nc(C)c(C)c(N(C)Cc2cnn(-c3ccccc3)c2)n1 [CK3] to Cc1cc(N(C)Cc2cnn(-c3ccccc3)c2)nc(C(C)C)n1 [CK4], the “Protective Activity (%), corn rust” value falls from 60% to 40%.

In the case of Cc1nc(Cl)cc(N(C)Cc2c(C)nn(-c3ccccc3)c2C)n1 [CK5], the “Protective Activity (%), corn rust” value is reported as 98%.
